Experimental data as given in PubChem BioAssay AID328 (DTP/NCI, 2004).
Several values for one entry are separate records, joined by “and”; a condition that tells them apart may be missing. Equal entries are not always repeated. Inconclusive results and toxic doses are left out. Residues, ends and D or L forms follow the SMILES beside them.

Test system: BDF1 mice, P388 leukemia ip, median survival T/C
Assay: NCI In Vivo Anticancer Drug Screen. Data for tumor model P388 Leukemia (intraperitoneal) in B6D2F1 (BDF1) mice
Conditions: endpoint: median survival time, higher = longer survival
Procedure, shortened: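 Vehicle-dosed animals serve as the reference; survival of compound-dosed, tumour-implanted mice is divided by it.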

[1] = dose: 12.5 mg/kg/injection, schedule: Q01DX009 (ip), vehicle: Klucel (hydroxypropylcellulose) (HPC)
[2] = dose: 25.0 mg/kg/injection, schedule: Q01DX009 (ip), vehicle: Klucel (hydroxypropylcellulose) (HPC)
[3] = dose: 100.0 mg/kg/injection, schedule: Q04DX003 (ip), vehicle: saline with Tween-80
[4] = dose: 200.0 mg/kg/injection, schedule: Q04DX003 (ip), vehicle: saline with Tween-80
[5] = dose: 400.0 mg/kg/injection, schedule: Q04DX003 (ip), vehicle: saline with Tween-80
[6] = dose: 50.0 mg/kg/injection, schedule: Q01DX005 (ip), vehicle: saline with Tween-80
[7] = dose: 100.0 mg/kg/injection, schedule: Q01DX005 (ip), vehicle: saline with Tween-80
[8] = dose: 50.0 mg/kg/injection, schedule: Q01DX009 (ip), vehicle: Klucel (hydroxypropylcellulose) (HPC)
[9] = dose: 100.0 mg/kg/injection, schedule: Q04DX003 (ip), vehicle: Klucel (hydroxypropylcellulose) (HPC)
[10] = dose: 100.0 mg/kg/injection, schedule: Q04DX003 (ip), vehicle: saline sonified
[11] = dose: 100.0 mg/kg/injection, schedule: Q01DX009 (ip), vehicle: saline with Tween-80
[12] = dose: 200.0 mg/kg/injection, schedule: Q01DX009 (ip), vehicle: saline with Tween-80
[13] = dose: 400.0 mg/kg/injection, schedule: Q01DX009 (ip), vehicle: saline with Tween-80
[14] = dose: 50.0 mg/kg/injection, schedule: Q01DX009 (ip), vehicle: saline with Tween-80

SMILES: N=C(N)SC1c2cc(Cl)ccc2-c2c(Cl)cc(Cl)cc21 (stereo not drawn)
- T/C (dose: 3.1 mg/kg/injection, schedule: Q01DX010 (ip), vehicle: carboxymethylcellulose (CMC)): 100 % of control
- T/C (dose: 6.2 mg/kg/injection, schedule: Q01DX010 (ip), vehicle: carboxymethylcellulose (CMC)): 110 % of control
- T/C [1]: 100 % of control
- T/C (dose: 12.5 mg/kg/injection, schedule: Q01DX010 (ip), vehicle: carboxymethylcellulose (CMC)): 110 % of control
- T/C [2]: 120 % of control
- T/C (dose: 100.0 mg/kg/injection, schedule: Q01DX010 (ip), vehicle: carboxymethylcellulose (CMC)): 150 % of control

SMILES: O=c1oc(/C=C/c2ccccc2)nc2cc(Cl)ccc12
- T/C [3]: 100 % of control
- T/C [4]: 109 % of control
- T/C [5]: 100 % of control

SMILES: CC(=O)NC(CCCCNC(=O)OCc1ccccc1)C(=O)O (stereo not drawn)
- T/C [6]: 90 % of control
- T/C [7]: 93 % of control
- T/C (dose: 200.0 mg/kg/injection, schedule: Q01DX005 (ip), vehicle: saline with Tween-80): 89 % of control

SMILES: O=C1OC(=O)C2C1C1(Cl)C(Cl)=C(Cl)C2(Cl)C2C(=O)OC(=O)C21 (stereo not drawn)
- T/C (dose: 100.0 mg/kg/injection, schedule: Q04DX003 (ip), vehicle: saline): 91 % of control
- T/C (dose: 200.0 mg/kg/injection, schedule: Q04DX003 (ip), vehicle: saline): 108 % of control
- T/C (dose: 400.0 mg/kg/injection, schedule: Q04DX003 (ip), vehicle: saline): 104 % of control

SMILES: CCCCCCCCCCC(=O)N1CCOCC1
- T/C (dose: 25.0 mg/kg/injection, schedule: Q04DX003 (ip), vehicle: saline with Tween-80): 100 % of control
- T/C (dose: 50.0 mg/kg/injection, schedule: Q04DX003 (ip), vehicle: saline with Tween-80): 104 % of control

SMILES: CCC(=O)OCC1OC(n2cnc3c(=S)nc(N)[nH]c32)C(OC(=O)CC)C1OC(=O)CC (stereo not drawn)
- T/C (dose: 12.5 mg/kg/injection, schedule: Q04DX003 (ip), vehicle: Klucel (hydroxypropylcellulose) (HPC)): 103 % of control
- T/C (dose: 16.0 mg/kg/injection, schedule: Q04DX003 (ip), vehicle: Klucel (hydroxypropylcellulose) (HPC)): 118 % of control
- T/C [2]: 115 % of control
- T/C (dose: 25.0 mg/kg/injection, schedule: Q04DX003 (ip), vehicle: Klucel (hydroxypropylcellulose) (HPC)): 173 % of control
- T/C [8]: 100 % of control
- T/C [9]: 122 % of control

SMILES: C/C(=N\OCc1cc2c(cc1Cl)OCO2)C(=O)O
- T/C [10]: 113 % of control
- T/C (dose: 200.0 mg/kg/injection, schedule: Q04DX003 (ip), vehicle: saline sonified): 109 % of control
- T/C (dose: 400.0 mg/kg/injection, schedule: Q04DX003 (ip), vehicle: saline sonified): 109 % of control

SMILES: CCCCCC(O)CCCCC
- T/C [11]: 104 % of control
- T/C [12]: 95 % of control

SMILES: NC(=S)N/N=C\c1ncccc1OCc1cccc(N)c1
- T/C (dose: 25.0 mg/kg/injection, schedule: Q01DX009 (ip), vehicle: other): 165 % of control
- T/C (dose: 50.0 mg/kg/injection, schedule: Q01DX009 (ip), vehicle: other): 150 % of control
- T/C (dose: 100.0 mg/kg/injection, schedule: Q01DX009 (ip), vehicle: other): 163 % of control
- T/C (dose: 200.0 mg/kg/injection, schedule: Q01DX009 (ip), vehicle: other): 182 % of control

SMILES: O=C1Nc2c(Cl)cc(Cl)cc2/C1=N/N=C/c1ccccc1O
- T/C (dose: 12.5 mg/kg/injection, schedule: Q01DX005 (ip), vehicle: saline with Tween-80): 95 % of control
- T/C (dose: 25.0 mg/kg/injection, schedule: Q01DX005 (ip), vehicle: saline with Tween-80): 95 % of control
- T/C [6]: 95 % of control

SMILES: CC(=O)NC(C)C(=O)NC(C)C(=O)NC(C)C(=O)NC(C)C(=O)O (stereo not drawn) (Ac-AAAA-OH; configuration not given here)
- T/C [6]: 98 % of control
- T/C [7]: 95 % of control

SMILES: COC(=O)c1ccc(OS(=O)(=O)c2cccc([N+](=O)[O-])c2)cc1
- T/C [11]: 88 % of control
- T/C [9]: 100 % of control
- T/C [12]: 100 % of control
- T/C (dose: 200.0 mg/kg/injection, schedule: Q04DX003 (ip), vehicle: Klucel (hydroxypropylcellulose) (HPC)): 100 % of control
- T/C [13]: 88 % of control
- T/C (dose: 400.0 mg/kg/injection, schedule: Q04DX003 (ip), vehicle: Klucel (hydroxypropylcellulose) (HPC)): 100 % of control

SMILES: N#C/C(=C\c1ccncc1)c1ccccc1
- T/C (dose: 12.5 mg/kg/injection, schedule: Q01DX009 (ip), vehicle: saline with Tween-80): 92 % of control
- T/C [14]: 98 % of control
- T/C [11]: 112 % of control
- T/C [12]: 98 % of control

SMILES: CN(N/C=N/S(=O)(=O)c1ccccc1)c1ccccc1
- T/C [14]: 94 % of control
- T/C [11]: 93 % of control

SMILES: S=C(NC1CCCCC1)NC1CCCCC1
- T/C [8]: 113 % of control
- T/C (dose: 100.0 mg/kg/injection, schedule: Q01DX001 (ip), vehicle: Klucel (hydroxypropylcellulose) (HPC)): 109 % of control
- T/C (dose: 100.0 mg/kg/injection, schedule: Q01DX009 (ip), vehicle: Klucel (hydroxypropylcellulose) (HPC)): 86 % of control
- T/C (dose: 200.0 mg/kg/injection, schedule: Q01DX001 (ip), vehicle: Klucel (hydroxypropylcellulose) (HPC)): 113 % of control
- T/C (dose: 200.0 mg/kg/injection, schedule: Q01DX009 (ip), vehicle: Klucel (hydroxypropylcellulose) (HPC)): 100 % of control
- T/C (dose: 400.0 mg/kg/injection, schedule: Q01DX001 (ip), vehicle: Klucel (hydroxypropylcellulose) (HPC)): 100 % of control

SMILES: CC(=O)NS(=O)(=O)c1ccc(NC(=O)/C=C/C(=O)O)cc1
- T/C [3]: 104 % of control
- T/C [4]: 118 % of control
- T/C [5]: 104 % of control

SMILES: COc1cc(C2c3cc4c(cc3C(O)C(CO)C2CO)OCO4)cc(OC)c1OC (stereo not drawn)
- T/C (dose: 17.5 mg/kg/injection, schedule: Q01DX009 (ip), vehicle: Klucel (hydroxypropylcellulose) (HPC)): 176 % of control
- T/C (dose: 35.0 mg/kg/injection, schedule: Q01DX009 (ip), vehicle: Klucel (hydroxypropylcellulose) (HPC)): 209 % of control
- T/C (dose: 37.5 mg/kg/injection, schedule: Q04DX003 (ip), vehicle: saline sonified): 109 % of control
- T/C (dose: 44.0 mg/kg/injection, schedule: Q01DX009 (ip), vehicle: saline with Tween-80): 150 % of control
- T/C (dose: 44.0 mg/kg/injection, schedule: Q04DX003 (ip), vehicle: saline sonified): 100 % of control
- T/C (dose: 66.0 mg/kg/injection, schedule: Q01DX009 (ip), vehicle: saline with Tween-80): 150 % of control
- T/C (dose: 66.0 mg/kg/injection, schedule: Q04DX003 (ip), vehicle: saline sonified): 105 % of control
- T/C (dose: 70.0 mg/kg/injection, schedule: Q01DX009 (ip), vehicle: Klucel (hydroxypropylcellulose) (HPC)): 228 % of control and 159 % of control
- T/C (dose: 75.0 mg/kg/injection, schedule: Q04DX003 (ip), vehicle: saline sonified): 122 % of control
- T/C [11]: 209 % of control
- T/C [10]: 110 % of control
- T/C [3]: 160 % of control and 183 % of control
- T/C (dose: 140.0 mg/kg/injection, schedule: Q01DX009 (ip), vehicle: Klucel (hydroxypropylcellulose) (HPC)): 172 % of control
- T/C (dose: 150.0 mg/kg/injection, schedule: Q01DX009 (ip), vehicle: saline with Tween-80): 159 % of control
- T/C (dose: 150.0 mg/kg/injection, schedule: Q04DX003 (ip), vehicle: saline sonified): 110 % of control
- T/C (dose: 150.0 mg/kg/injection, schedule: Q04DX003 (ip), vehicle: saline with Tween-80): 160 % of control
- T/C [4]: 172 % of control and 191 % of control
- T/C (dose: 225.0 mg/kg/injection, schedule: Q04DX003 (ip), vehicle: saline with Tween-80): 190 % of control
- T/C (dose: 300.0 mg/kg/injection, schedule: Q04DX003 (ip), vehicle: saline sonified): 200 % of control
- T/C [5]: 200 % of control and 204 % of control

SMILES: CSc1nc(Cl)c(Cl)c(C(F)(F)F)n1
- T/C (dose: 6.25 mg/kg/injection, schedule: Q01DX005 (ip), vehicle: saline): 110 % of control
- T/C (dose: 12.5 mg/kg/injection, schedule: Q01DX005 (ip), vehicle: saline): 109 % of control
- T/C (dose: 25.0 mg/kg/injection, schedule: Q01DX005 (ip), vehicle: saline): 115 % of control

SMILES: O=C(O)C1(c2ccccc2)CC1
- T/C [11]: 109 % of control
- T/C [12]: 90 % of control
- T/C [13]: 90 % of control

SMILES: C[C@@H]1CC2=CC(=O)CC[C@@H]2[C@H]2CC[C@@]3(C)[C@@H](CC[C@]3(C)O)[C@@H]21
- T/C [11]: 104 % of control
- T/C [3]: 100 % of control
- T/C [12]: 90 % of control

SMILES: NNC(=O)c1c[nH]c2ccccc2c1=O
- T/C [1]: 104 % of control
- T/C [2]: 104 % of control
- T/C [8]: 91 % of control
- T/C (dose: 75.0 mg/kg/injection, schedule: Q01DX009 (ip), vehicle: Klucel (hydroxypropylcellulose) (HPC)): 108 % of control
- T/C (dose: 115.0 mg/kg/injection, schedule: Q01DX009 (ip), vehicle: Klucel (hydroxypropylcellulose) (HPC)): 91 % of control
- T/C (dose: 170.0 mg/kg/injection, schedule: Q01DX009 (ip), vehicle: Klucel (hydroxypropylcellulose) (HPC)): 95 % of control
